Source: US4968788A, “Biologically reversible phosphate and phosphonate protective gruops” (Board of Regents, The University of Texas System, priority 1989, dated 1990)

Columns and labels:
[1] = degradation on incubation with mouse plasma; assay type: in vitro ADME
Experimental: (§1) (At appropriate intervals, aliquots (100 μl) of the incubation mixtures were diluted with 3 volumes of methanol and then agitated for 1 minute on a Vortex shaker. The precipitated protein was separated by centrifugation at 10,000×g for 5 minutes, and the supernatants were analyzed by HPLC as described above.)
(§2) was incubated at […] with mouse plasma and hog liver carboxylate esterase.

physchem = assay type: physicochemical
Experimental: Several tests have been performed with both types of protected compositions. […] The stabilities of these protected compositions were determined in aqueous buffered solutions having pH ranging from 1 to 10, and also under selected biological conditions. Except for the acetoxymethyl derivatives of the second type, these phosphoesters were relatively stable in a neutral environment. They reverted to their parent compounds in acidic or basic media.
The protected product was stable in neutral aprotic solvents such as benzene, diethyl ether and ethyl acetate. […] The half-life was greater than 4 hours.
These solutions were analyzed by (HPLC) high performance liquid chromatography (Waters model ALC 204). The disappearance of the bis(acyloxymethyl) phosphate was monitored by reversed-phase chromatography on a column of μ Bondapak-C18 (30 cm×4 mm i.d., 10 μm; Waters Assoc., Milford, Mass.) using solutions of 0.01M potassium phosphate buffer (pH 7.0) with methanol as the mobile phase (typically 25-50% alcohol).
The formation of intermediate B and mono(acetoxymethyl) phosphate C was monitored by ion-pair chromatography on μ Bondapak-C using the same buffer system as described above, except that tetrabutylammonium hydroxide was added to a concentration 2×10^-3 M, or by anion-exchange chromatography on a column of Partisil SAX (25 cm×4.6 mm i.d., 10 μm; Whatman) using a linear gradient of 0.01-0.1M potassium phosphate buffer (pH 6.5) as an eluent. The flow rates for these analyses and the ones described above ranged from 1.0 to 2.0 ml/min. The column effluents were monitored at 254 nm with a Schoeffel model 450 UV detector, and the concentrations were determined by comparison of the peak areas with those of reference standards.

[2] = degradation on incubation with hog liver carboxylate esterase; assay type: in vitro ADME; settings: pig, liver carboxylate esterase; 65 micrograms per milliliter, 37° C., pH 7.4, 8 milligrams protein per milliliter
Experimental: as §1, §2

[3] = test system: hog liver carboxylate esterase; assay: as above; assay type: in vitro ADME
Experimental: as §1, §2

[4] = test system: Chinese hamster ovary cells; assay: prevention of growth of Chinese hamster ovary cells in culture; assay type: cell-based
Experimental: Example 5 was repeated with the R substituent changed to fluorine (i.e., 2',5-dideoxy-5'-iodo-3'-O-acetyl-5-fluorouridine). There was a 15% yield of this product. This composition prevented the growth of Chinese hamster ovary cells in culture at a concentration of 5.0×10^-6 M [5-fluoro-2'-deoxyuridine (5-FUdR) control, 1.0×10^-6 M].
as §2

[5] = test system: P388 leukemia which is resistant to 5-fluorouracil; assay: activity against P388 leukemia resistant to 5-fluorouracil; settings: P388 resistant to 5-fluorouracil
[6] = 65 micrograms per milliliter, 37° C., 0.05M potassium phosphate buffer (pH 7.4), mouse plasma 50% by volume

In the case of `CC(C)(C)C(=O)OC1CCOP(=O)(Oc2ccccc2)O1` (stereo not shown) [Example 1], the “reversion to phenyl phosphate in mouse plasma” value ([1]; 37° C., 30 minutes, mouse plasma) is reported as “reverted to phenyl phosphate”, the “stability in organic solvents or aqueous buffers” value (physchem; organic solvents or aqueous buffers) is reported as “stable” and the “conversion to phenyl phosphate with strong acids or bases” value (physchem; strong acids or bases) is reported as “quantitatively converted to phenyl phosphate”.

In the case of `CC(=O)OCOP(=O)(OCOC(C)=O)Oc1ccccc1` [Example 2, bis(acetoxymethyl) phenyl phosphate], the half-life [2] is reported as under 0.25 h, the “degradation by hog liver carboxylate esterase (first to mono(acetoxymethyl) analog, then to phenyl phosphate)” value ([3]; 65 micrograms per milliliter, 37° C., pH 7.4, 8 milligrams protein per milliliter) is reported as “rapidly degraded” and the “degradation in mouse plasma (first to mono(acetoxymethyl) analog, then to phenyl phosphate)” value [1, 6] is reported as “rapidly degraded”. For the same compound, the half-life [1, 6] was under 0.25 h, the “conversion in protonic solvents” value (physchem; ethanol, water or 0.05M potassium phosphate buffer (pH 7.4)) was “slowly converted to mono(acetoxymethyl) phenyl phosphate” and the half-life (physchem; ethanol, water or 0.05M potassium phosphate buffer (pH 7.4), read-out: half-life in protonic solvents) was over 4 h. The “stability in neutral aprotic solvents” value (physchem; neutral aprotic solvents such as benzene, diethyl ether and ethyl acetate) was “stable”.

For `CC(C)(C)C(=O)OCOP(=O)(OCOC(=O)C(C)(C)C)Oc1ccccc1` [Example 3, bis(pivaloyloxymethyl) phenyl phosphate], the “resistance to both chemical and enzymatic hydrolysis” value ([1]; compared with the protected composition of Example 1 (so in the source)) was “much more resistant”, the half-life ([1]; pH 7.4, incubated with mouse plasma under the same conditions as in Example 2) was about 5 h and the “stability in protonic solvents” value (physchem; protonic solvents) was “stable in protonic solvents”.

`O=c1[nH]c(=O)n([C@H]2C[C@H](O)[C@@H](CO)O2)cc1F` [Example 5-FUdR, 5-fluoro-2'-deoxyuridine, reference compound] gave a minimal effective concentration ([4]; Cricetulus griseus, read-out: concentration that prevented the growth of Chinese hamster ovary cells) of 1 µM.

With `CC(=O)O[C@H]1C[C@H](n2cc(F)c(=O)[nH]c2=O)O[C@@H]1COP(=O)(OCOC(=O)C(C)(C)C)OCOC(=O)C(C)(C)C` [Example 6] the “concentration that prevented the growth of Chinese hamster ovary cells” value [4] was 5 µM.

With `CC(=O)O[C@H]1C[C@H](n2cc(F)c(=O)[nH]c2=O)O[C@@H]1COP(=O)(OCOC(=O)C(C)(C)C)OCOC(=O)C(C)(C)C` [Example 7] the “cleavage of acyloxymethyl groups and 3'-acetyl group with hog liver carboxylate esterase” value [3] was “successively cleaved to give 5-FdUMP”, the “cleavage of acyloxymethyl groups and 3'-acetyl group in mouse plasma” value [1] was “successively cleaved to give 5-FdUMP” and the “concentration that prevented the growth of Chinese hamster ovary cells” value [4] was 1 µM. The “activity against P388 leukemia” value [5] was “active”.
